# Reference: US10035790B2, “RORγ modulators” (BRISTOL-MYERS SQUIBB COMPANY, priority 2012, dated 2018)
# Molecular target: T1, ligand binding domain of human RORγ (A262-S507) (Homo sapiens, UniProt P51449)
# T1 construct: made in house; host or cells: E. coli
# T1 sequence (P51449 262-507): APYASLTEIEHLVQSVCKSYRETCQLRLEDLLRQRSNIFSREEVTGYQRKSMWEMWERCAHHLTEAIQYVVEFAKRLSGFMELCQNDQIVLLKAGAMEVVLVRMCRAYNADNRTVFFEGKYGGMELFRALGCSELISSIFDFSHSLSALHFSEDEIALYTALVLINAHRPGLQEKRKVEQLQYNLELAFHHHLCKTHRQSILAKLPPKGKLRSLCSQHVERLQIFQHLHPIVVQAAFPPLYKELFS
# Assay: General RORγ SPA binding assay (competition with [3H]25-hydroxycholesterol)
# Details: IC50, RORγ SPA binding assay, inhibition of [3H]25-hydroxycholesterol binding
# Procedure, shortened: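 Step one: compound meets 50 nM nickel-purified, His-tagged protein from E. coli for 15 min at room temperature (PBS, 0.5% fatty acid free BSA). Step two: radioligand is added for another 15 min. Step three: SPA beads are added for 30 min before scintillation reading and IC50 fitting.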
row,SMILES,IC50
1,"CC(O)(COc1ccnc(C(F)(F)F)n1)c1cnc(N)nc1C1CCN(C(=O)Oc2c(F)cccc2F)CC1 (stereo not shown) [Compound D46, 2,6-Difluorophenyl 4-[2-amino-5-(1-hydroxy-1-methyl-2-{[2-(trifluoromethyl)pyrimidin-4-yl]oxy}ethyl)pyrimidin-4-yl]piperidine-1-carboxylate]",6.3 nM
2,"CC(O)(COc1cccc(C(F)(F)F)n1)c1cnc(N)nc1C1CCN(C(=O)Oc2c(F)cccc2F)CC1 (stereo not shown) [Compound D48, 2,6-Difluorophenyl 4-[2-amino-5-(1-hydroxy-1-methyl-2-{[6-(trifluoromethyl)pyridin-2-yl]oxy}ethyl)pyrimidin-4-yl]piperidine-1-carboxylate]",30.3 nM
3,"CC(O)(COc1ccnc(C(F)(F)F)n1)c1cnc(N)nc1C1CCN(C(=O)Oc2ccccc2F)CC1 (stereo not shown) [Compound D49, 2-Fluorophenyl 4-[2-amino-5-(1-hydroxy-1-methyl-2-{[2-(trifluoromethyl)pyrimidin-4-yl]oxy}ethyl)pyrimidin-4-yl]piperidine-1-carboxylate]",7.2 nM

# Same assay, conditions: RORγ SPA binding assay, inhibition of [3H]25-hydroxycholesterol binding; read-out: IC50
row,SMILES,IC50
1,"CC(=O)Nc1ncc(C(C)(O)COc2ccnc(C(F)(F)F)n2)c(C2CCN(C(=O)Nc3c(F)cccc3F)CC2)n1 (stereo not shown) [Compound D31, 4-[2-(Acetylamino)-5-(1-hydroxy-1-methyl-2-{[2-(trifluoromethyl)pyrimidin-4-yl]oxy}ethyl)pyrimidin-4-yl]-N-(2,6-difluorophenyl)piperidine-1-carboxamide]",119 nM
2,"CC(=O)Nc1ncc(C(C)(O)COc2cccc(C(F)(F)F)n2)c(C2CCN(C(=O)Nc3c(F)cccc3F)CC2)n1 (stereo not shown) [Compound D32, 4-[2-(Acetylamino)-5-(1-hydroxy-1-methyl-2-{[6-(trifluoromethyl)pyridin-2-yl]oxy}ethyl)pyrimidin-4-yl]-N-(2,6-difluorophenyl)piperidine-1-carboxamide]",13.9 nM
3,"CC(=O)Nc1ncc(C(C)(O)COc2ccnc(C(F)(F)F)n2)c(C2CCN(C(=O)Cc3c(F)cccc3F)CC2)n1 (stereo not shown) [Compound D33, N-[4-{1-[(2,6-Difluorophenyl)acetyl]piperidin-4-yl}-5-(1-hydroxy-1-methyl-2-{[2-(trifluoromethyl)pyrimidin-4-yl]oxy}ethyl)pyrimidin-2-yl]acetamide]",14 nM
4,"CC(O)(COc1ccnc(C(F)(F)F)n1)c1cnc(NC2CC2)nc1C1CCN(C(=O)Nc2c(F)cccc2F)CC1 (stereo not shown) [Compound D34, 4-[2-(Cyclopropylamino)-5-(1-hydroxy-1-methyl-2-{[2-(trifluoromethyl)pyrimidin-4-yl]oxy}ethyl)pyrimidin-4-yl]-N-(2,6-difluorophenyl)piperidine-1-carboxamide]",15 nM
5,"CCNc1ncc(C(C)(O)COc2ccnc(C(F)(F)F)n2)c(C2CCN(C(=O)Nc3c(F)cccc3F)CC2)n1 (stereo not shown) [Compound D35, N-(2,6-Difluorophenyl)-4-[2-(ethylamino)-5-(1-hydroxy-1-methyl-2-{[2-(trifluoromethyl)pyrimidin-4-yl]oxy}ethyl)pyrimidin-4-yl]piperidine-1-carboxamide]",14.8 nM
6,"CNc1ncc(C(C)(O)COc2ccnc(C(F)(F)F)n2)c(C2CCN(C(=O)Nc3c(F)cccc3F)CC2)n1 (stereo not shown) [Compound D36, N-(2,6-Difluorophenyl)-4-[5-(1-hydroxy-1-methyl-2-{[2-(trifluoromethyl)pyrimidin-4-yl]oxy}ethyl)-2-(methylamino)pyrimidin-4-yl]piperidine-1-carboxamide]",15.8 nM
7,"COc1ccc(CNc2ncc(C(C)(O)COc3ccnc(C(F)(F)F)n3)c(C3CCN(C(=O)Nc4c(F)cccc4F)CC3)n2)c(OC)c1 (stereo not shown) [Compound D37, 4-[2-({[2,4-Bis(methyloxy)phenyl]methyl}amino)-5-(1-hydroxy-1-methyl-2-{[2-(trifluoromethyl)pyrimidin-4-yl]oxy}ethyl)pyrimidin-4-yl]-N-(2,6-difluorophenyl)piperidine-1-carboxamide]",112 nM
8,"CN(C)c1ncc(C(C)(O)COc2ccnc(C(F)(F)F)n2)c(C2CCN(C(=O)Nc3c(F)cccc3F)CC2)n1 (stereo not shown) [Compound D38, N-(2,6-Difluorophenyl)-4-[2-(dimethylamino)-5-(1-hydroxy-1-methyl-2-{[2-(trifluoromethyl)pyrimidin-4-yl]oxy}ethyl)pyrimidin-4-yl]piperidine-1-carboxamide]",25.9 nM
9,"CC(O)(COc1ccnc(C(F)(F)F)n1)c1cnc(NCC(F)F)nc1C1CCN(C(=O)Nc2c(F)cccc2F)CC1 (stereo not shown) [Compound D39, 4-{2-[(2,2-Difluoroethyl)amino]-5-(1-hydroxy-1-methyl-2-{[2-(trifluoromethyl)pyrimidin-4-yl]oxy}ethyl)pyrimidin-4-yl}-N-(2,6-difluorophenyl)piperidine-1-carboxamide]",5.1 nM
10,"CC(C)Oc1ncc(C(C)(O)COc2ccnc(C(F)(F)F)n2)c(C2CCN(C(=O)Nc3c(F)cccc3F)CC2)n1 (stereo not shown) [Compound D40, N-(2,6-Difluorophenyl)-4-{5-(1-hydroxy-1-methyl-2-{[2-(trifluoromethyl)pyrimidin-4-yl]oxy}ethyl)-2-[(1-methylethyl)oxy]pyrimidin-4-yl}piperidine-1-carboxamide]",29.6 nM
11,"CC(O)(COc1ccnc(C(F)(F)F)n1)c1cnc(OCC(F)F)nc1C1CCN(C(=O)Nc2c(F)cccc2F)CC1 (stereo not shown) [Compound D41, 4-{2-[(2,2-Difluoroethyl)oxy]-5-(1-hydroxy-1-methyl-2-{[2-(trifluoromethyl)pyrimidin-4-yl]oxy}ethyl)pyrimidin-4-yl}-N-(2,6-difluorophenyl)piperidine-1-carboxamide]",101 nM
12,"CC(O)(COc1ccnc(C(F)(F)F)n1)c1cnc(OC(CF)CF)nc1C1CCN(C(=O)Nc2c(F)cccc2F)CC1 (stereo not shown) [Compound D42, N-(2,6-Difluorophenyl)-4-[2-{[2-fluoro-1-(fluoromethyl)ethyl]oxy}-5-(1-hydroxy-1-methyl-2-{[2-(trifluoromethyl)pyrimidin-4-yl]oxy}ethyl)pyrimidin-4-yl]piperidine-1-carboxamide]",348 nM
13,"CC(O)(COc1ccnc(C(F)(F)F)n1)c1cnc(OCCF)nc1C1CCN(C(=O)Nc2c(F)cccc2F)CC1 (stereo not shown) [Compound D43, N-(2,6-Difluorophenyl)-4-{2-[(2-fluoroethyl)oxy]-5-(1-hydroxy-1-methyl-2-{[2-(trifluoromethyl)pyrimidin-4-yl]oxy}ethyl)pyrimidin-4-yl}piperidine-1-carboxamide]",22 nM
14,"COc1ncc(C(C)(O)COc2ccnc(C(F)(F)F)n2)c(C2CCN(C(=O)Nc3c(F)cccc3F)CC2)n1 (stereo not shown) [Compound D44, N-(2,6-Difluorophenyl)-4-[5-(1-hydroxy-1-methyl-2-{[2-(trifluoromethyl)pyrimidin-4-yl]oxy}ethyl)-2-(methyloxy)pyrimidin-4-yl]piperidine-1-carboxamide]",4.6 nM
15,"COc1ncc(C(C)(O)COc2cccc(C(F)(F)F)n2)c(C2CCN(C(=O)Nc3c(F)cccc3F)CC2)n1 (stereo not shown) [Compound D45, N-(2,6-Difluorophenyl)-4-[5-(1-hydroxy-1-methyl-2-{[6-(trifluoromethyl)pyridin-2-yl]oxy}ethyl)-2-(methyloxy)pyrimidin-4-yl]piperidine-1-carboxamide]",3.4 nM
16,"Cc1ncc(C(C)(O)Cc2cccc(C(F)(F)F)n2)c(C2CCN(C(=O)Nc3c(F)cccc3F)CC2)n1 (stereo not shown) [Compound D47, N-(2,6-Difluorophenyl)-4-(5-{1-hydroxy-1-methyl-2-[6-(trifluoromethyl)pyridin-2-yl]ethyl}-2-methylpyrimidin-4-yl)piperidine-1-carboxamide]",52.9 nM
